Source: patent US7244727B2, “Fused bicyclic nitrogen-containing heterocycles” (Japan Tobacco Inc., priority 2002, dated 2007)

What was measured:
human DGAT1 = biological target: T1, human DGAT1 (Homo sapiens, UniProt O75907); assay: DGAT Scintillation Proximity Assay (SPA) with membranes of insect cells expressing human flagtag DGAT1; type: biochemical; details: read-out: hDGAT1 IC50
T1 construct: made in house; host or cells: insect cells (sf9, sf21 or High Five) infected with baculovirus; total cell membranes
T1 sequence (O75907 1-488): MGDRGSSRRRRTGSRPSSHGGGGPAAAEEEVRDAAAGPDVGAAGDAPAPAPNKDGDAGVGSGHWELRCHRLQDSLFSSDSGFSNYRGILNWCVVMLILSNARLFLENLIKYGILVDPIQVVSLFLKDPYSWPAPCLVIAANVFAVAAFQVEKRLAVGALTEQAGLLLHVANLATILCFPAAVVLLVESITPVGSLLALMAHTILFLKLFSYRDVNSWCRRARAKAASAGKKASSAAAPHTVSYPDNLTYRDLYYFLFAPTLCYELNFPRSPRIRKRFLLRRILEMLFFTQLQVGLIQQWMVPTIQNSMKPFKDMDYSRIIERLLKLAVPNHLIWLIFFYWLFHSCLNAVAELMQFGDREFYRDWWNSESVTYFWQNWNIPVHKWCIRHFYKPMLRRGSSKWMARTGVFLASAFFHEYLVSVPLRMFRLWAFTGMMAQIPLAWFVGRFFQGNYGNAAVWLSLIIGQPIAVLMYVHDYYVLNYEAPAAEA
Protocol: In such an assay human DGAT1 is cloned from a human liver cDNA library. PCR is used to add a restriction site and flag epitope at the most 5′ end and a restriction site at the 3′ end of the sequence. Thereafter, human flagtag (FT) DGAT1 baculovirus may be generated using a Bac-to-Bac Baculovirus Expression System® (Invitrogen). Insect cells (e.g., sf9, sf2 1, or High Five) are infected for 24 to 72 h and collected by centrifugation. Cell pellets are resuspended in homogenization buffer and lysed using a homogenization device, such as a Microfluidizer. Total cell membranes are collected by ultracentrifugation at 45,000 rpm for 1 h.
A small aliquot (0.2 μg/well) of membrane is incubated with 10 μM compound or mercuric chloride (as positive control for inhibition) in the presence of enzyme substrate, dioleoyl glycerol (200 μM) in 384 well plates, final volume 50 gL per well. […] The reaction is stopped by adding Wheat Germ Agglutinin (WGA) SPA beads (0.2 mg) in mercuric chloride. Cell membranes are allowed to couple to the beads overnight. The signal can be measured using, for example, a Chemiluminescence Image Plate Reader (CLIPR) or TopCount device.

Row | Structure (SMILES) | melting point | IC50 (human DGAT1) [nM]
1 | CC1(C)Oc2ncnc(N)c2N=C1c1ccc([C@@H]2CCC[C@H](CC(=O)O)C2)cc1 [Example 2-126] | 234 to 235 °C | 10 to 100
2 | CC1(C)Oc2ncnc(N)c2N=C1c1ccc([C@H]2CC[C@H](CCC(=O)N3CCC(O)CC3)CC2)cc1 [Example 2-180] | 200 to 202 °C | 10 to 100
3 | Cc1nc(N)c2c(n1)OC(C)(C)C(c1ccc([C@H]3CC[C@H](CC(=O)O)CC3)c(F)c1)=N2 [Example 6-9] | > 269 °C | < 10
4 | Nc1ncnc2c1N=C(c1ccncc1)CO2 [Example 1-18] | > 220 °C | > 100
5 | CC1(C)Oc2ncnc(N)c2NC1c1ccc(F)cc1 (centres unmarked) [Example 2-21] | > 230 °C | > 100
6 | CCCNC(=O)C[C@H]1CC[C@H](c2ccc(C3=Nc4c(N)ncnc4OC3(C)C)cc2)CC1 [Example 2-102] | 214 to 215 °C | 10 to 100
7 | CC(C)(NC(=O)C[C@H]1CC[C@H](c2ccc(C3=Nc4c(N)ncnc4OC3(C)C)cc2)CC1)C(=O)O [Example 2-65] | 243 to 244 °C | < 10
8 | CCNC(=O)NC[C@H]1CC[C@H](c2ccc(C3=Nc4c(N)nc(C)nc4OC3(C)C)cc2Cl)CC1 [Example 6-13] | > 250 °C | < 10
9 | Cc1csc(NCC[C@H]2CC[C@H](c3ccc(C4=Nc5c(N)ncnc5OC4(C)C)cc3)CC2)n1 [Example 2-184] | > 250 °C | 10 to 100
10 | CC1(C)Oc2ncnc(N)c2N=C1c1cccc(OCC2CCCCC2)c1 [Example 5-3] | 151 to 152 °C | > 100
11 | Cc1nc(N)c2c(n1)OC(C)(C)C(c1ccc(C3CCCCC3)cc1)=N2 [Example 2-26] | 226 to 227 °C | 10 to 100
12 | Cc1nc(N)c2c(n1)OC(C)(C)C(c1ccc([C@H]3CC[C@H](CNC(=O)C(C)(C)O)CC3)cc1)=N2 [Example 2-150] | 228 to 229 °C | 10 to 100
13 | Cc1nc(N)c2c(n1)OC(C)(C)C(c1ccc(C3CC(CC(=O)O)C3(C)C)cc1)=N2 (centres unmarked) [Example 2-145] | > 250 °C | 10 to 100
14 | Cc1nc(N)c2c(n1)OC(C)(C)C(c1ccc([C@H]3CC[C@H](CCc4nc(=O)s[nH]4)CC3)cc1)=N2 [Example 2-196] | 211 °C (dec.) | 10 to 100
15 | CC1CCC(c2ccc(C3=Nc4c(N)ncnc4OC3(C)C)cc2)CC1 (centres unmarked) [Example 2-41] | 201 to 209 °C | > 100
16 | Cc1nc(N)c2c(n1)OC(C)(C)C(c1ccc([C@H]3CC[C@H](CC(=O)N(C)CC(=O)O)CC3)cc1)=N2 [Example 2-143] | 196 to 198 °C | < 10
17 | CC1(C)Oc2ncnc(N)c2N=C1c1ccc([C@H]2CC[C@H](CCN3CCC(O)CC3)CC2)cc1 [Example 2-84] | 217 to 218 °C | > 100
18 | CC1(C)Oc2ncnc(N)c2NC1c1ccccc1 (centres unmarked) [Example 2-8] | > 220 °C | > 100
19 | CC1(C)Oc2ncnc(N)c2N=C1c1ccc([C@H]2CC[C@H](CC(=O)CO)CC2)cc1 [Example 2-110] | 155 to 156 °C | 10 to 100
20 | Cc1nc(N)c2c(n1)OC(C)(C)C(c1ccc([C@H]3CC[C@H](CCc4nn[nH]n4)CC3)cc1)=N2 [Example 2-200] | > 250 °C | < 10
21 | CCNS(=O)(=O)C[C@H]1CC[C@H](c2ccc(C3=Nc4c(N)ncnc4OC3(C)C)cc2)CC1 [Example 2-252] | 209 to 211 °C | 10 to 100
22 | Nc1ncnc2c1N=C(c1ccc(Br)cc1)C1(CCCC1)O2 [Example 2-13] | 184 to 186 °C | > 100
23 | Cc1nc(N)c2c(n1)OC(C)(C)C(c1ccc([C@H]3CC[C@H](C(=O)O)CC3)cc1)=N2 [Example 2-255] | > 250 °C | 10 to 100
24 | CC1(C)Oc2ncnc(N)c2N=C1c1ccc([C@H]2CC[C@H](CC(=O)N3CCOCC3)CC2)cc1 [Example 2-95] | 199 to 200 °C | 10 to 100
25 | Nc1ncnc2c1N=C(c1ccc([N+](=O)[O-])cc1)CO2 [Example 1-13] | > 250 °C | > 100

Row | Structure (SMILES) | melting point | IC50 (human DGAT1) [nM]
26 | CC1(C)Oc2ncnc(N)c2N=C1c1ccc([C@H]2CC[C@H](CCNC(=O)[C@@H]3C[C@@H](O)CN3)CC2)cc1 [Example 2-183] | 201 to 203 °C | 10 to 100
27 | CC(C)(C)OC(=O)N1CCN(C[C@H]2CC[C@H](c3ccc(C4=Nc5c(N)ncnc5OC4(C)C)cc3)CC2)CC1 [Example 2-232] | 171 to 172 °C | 10 to 100
28 | CC1(C)Oc2ncnc(N)c2N=C1c1ccc([C@H]2CC[C@H](CC(=O)N3CCC(CCO)CC3)CC2)cc1 [Example 2-96] | 112 to 113 °C | 10 to 100
29 | CC(C)C(=O)N1CCN(C[C@H]2CC[C@H](c3ccc(C4=Nc5c(N)ncnc5OC4(C)C)cc3)CC2)CC1 [Example 2-241] | 120 to 126 °C | 10 to 100
30 | CC1(C)Oc2ncnc(N)c2N=C1c1ccc([C@H]2CC[C@H](CCN3CCCCC3)CC2)cc1 [Example 2-82] | 209 to 210 °C | > 100
31 | CN(C[C@H]1CC[C@H](c2ccc(C3=Nc4c(N)ncnc4OC3(C)C)cc2)CC1)C(=O)CO [Example 2-243] | 208 to 210 °C | 10 to 100
32 | CCOC(=O)N1CCN(c2ccc(C3=Nc4c(N)ncnc4OC3(C)C)cc2)CC1 [Example 4-5] | 174 to 175 °C | > 100
33 | Cc1ccc(C2Nc3c(N)ncnc3OC2(C)C)cc1 (centres unmarked) [Example 2-20] | > 230 °C | > 100
34 | Nc1ncnc2c1N=C(c1cccc(Br)c1)CO2 [Example 1-7] | > 220 °C | > 100
35 | Cc1nc(N)c2c(n1)OC(C)(C)C(c1ccc([C@H]3CC[C@H](CCC(=O)NS(C)(=O)=O)CC3)cc1)=N2 [Example 2-192] | > 250 °C | < 10
36 | CCCNC(=O)CC[C@H]1CC[C@H](c2ccc(C3=Nc4c(N)ncnc4OC3(C)C)cc2)CC1 [Example 2-177] | 198 to 200 °C | 10 to 100
37 | CC1(C)Oc2ncnc(N)c2N=C1c1ccc([C@H]2CC[C@H](CCNS(C)(=O)=O)CC2)cc1 [Example 2-173] | 218 to 219 °C | 10 to 100
38 | CC1(C)Oc2ncnc(N)c2N=C1c1ccc([C@H]2CC[C@H](CNS(N)(=O)=O)CC2)cc1 [Example 2-130] | 226 to 227 °C | 10 to 100
39 | Cc1nc(N)c2c(n1)OC(C)(C)C(c1ccc([C@H]3CC[C@H](CSC(C)(C)C(=O)O)CC3)cc1)=N2 [Example 2-260] | 235 to 239 °C | 10 to 100
40 | CC1(C)Oc2ncnc(N)c2N=C1c1ccc([C@H]2CC[C@H](CCN3CCC(Cc4ccccc4)CC3)CC2)cc1 [Example 2-86] | 190 to 191 °C | > 100
41 | CC1(C)Oc2ncnc(N)c2NC1c1ccc([C@H]2CC[C@H](CCC(=O)O)CC2)cc1 (some centres unmarked) [Example 2-6] | > 250 °C | 10 to 100
42 | CCn1c(C[C@H]2CC[C@H](c3ccc(C4=Nc5c(N)nc(C)nc5OC4(C)C)cc3)CC2)n[nH]c1=O [Example 2-156] | > 250 °C | 10 to 100
43 | CCN(CC)C(=O)CC[C@H]1CC[C@H](c2ccc(C3=Nc4c(N)ncnc4OC3(C)C)cc2)CC1 [Example 2-189] | 192 to 194 °C | 10 to 100
44 | CC1(C)Oc2ncnc(N)c2N=C1c1ccc(-c2ccncc2)cc1 [Example 2-28] | > 250 °C | > 100
45 | Cc1nc(N)c2c(n1)OC(C)(C)C(c1ccc([C@H]3CC[C@H](CN4CCOC4=O)CC3)cc1)=N2 [Example 2-158] | 240 to 241 °C | 10 to 100
46 | CCCNC(=O)N1CCN(C[C@H]2CC[C@H](c3ccc(C4=Nc5c(N)ncnc5OC4(C)C)cc3)CC2)CC1 [Example 2-245] | 180 to 182 °C | 10 to 100
47 | Cc1nc(N)c2c(n1)OC(C)(C)C(c1ccc([C@H]3CC[C@H](CC(C)(C)C(=O)O)CC3)cc1)=N2 [Example 2-202] | > 225 °C | 10 to 100
48 | CC1(C)Oc2ncnc(N)c2N=C1c1ccc([C@H]2CC[C@H](CC(=O)N3CCC(O)CC3)CC2)cc1 [Example 2-77] | 137 to 139 °C | 10 to 100
49 | CC1(C)Oc2ncnc(N)c2N=C1c1ccc([C@H]2CC[C@H](C(=O)NCCO)CC2)cc1 [Example 2-203] | 235 to 237 °C | 10 to 100
